Results: PMC9358669, “Native metabolomics identifies the rivulariapeptolide family of protease inhibitors” (Nature Communications, 2022)
Like-named read-outs stand apart in the source and are kept apart here. Starred links: 1 amine or outer side, 2 acyl side, 3 side chain; linkers in the order of their positions; H or OH if unused. Positions of bridges follow the written chain, without caps; N, C: chain ends. Non-standard residues stand in square brackets, D forms with d. Residues, ends and D or L forms follow the SMILES beside them. *: point of attachment. Ahp(3S,6R)alloIle = CC[C@@H](C)[C@@H](C(=O)[*:2])N1C(=O)[C@@H](N[*:1])CC[C@H]1O; Propanoyl(2R-OMe,3-OSO3H) = CO[C@H](COS(=O)(=O)O)C(=O)*; NMeTyr(3-Br,OMe) = CN[C@@H](Cc1ccc(OC)c(Br)c1)C(=O)O

Assays:
Chymotrypsin [1] = system: Chymotrypsin; design: method as in earlier work; conditions: Supplementary Table 5, Top 50 chymotrypsin inhibitors among Ahp-cyclodepsipeptides; cited from earlier work
Chymotrypsin [2] = molecular target: T1, Chymotrypsin (Bos taurus, UniProt P00766); test: Chymotrypsin inhibition, fluorogenic substrate assay (Suc-Ala-Ala-Pro-Phe-AMC); format: biochemical; conditions: for Mean (RFU/s): Chymotrypsin
T1 construct: purchased Sigma-Aldrich

Elastase = molecular target: T2, Elastase (Sus scrofa, UniProt P00772); test: Elastase inhibition, fluorogenic substrate assay (MeOSuc-Ala-Ala-Pro-Val-AMC); format: biochemical, Sus domesticus; conditions: for IC50 / Mean (RFU/s): 40 min pre-incubation; for IC50: mean, n = 3; for Mean (RFU/s): Elastase
T2 construct: purchased Sigma-Aldrich
T2 sequence (P00772 27-266): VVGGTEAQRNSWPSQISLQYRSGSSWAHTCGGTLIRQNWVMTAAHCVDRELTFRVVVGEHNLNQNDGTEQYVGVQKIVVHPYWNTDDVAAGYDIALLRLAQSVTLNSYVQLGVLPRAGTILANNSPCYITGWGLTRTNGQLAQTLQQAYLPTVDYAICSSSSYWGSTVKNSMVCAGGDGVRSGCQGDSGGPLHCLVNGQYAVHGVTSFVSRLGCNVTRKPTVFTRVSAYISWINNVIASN

Proteinase K = molecular target: T3, Proteinase K (Parengyodontium album, UniProt P06873); test: Proteinase K inhibition, fluorogenic substrate assay (Suc-Ala-Ala-Pro-Phe-AMC); format: biochemical, Tritirachium album; conditions: 40 min pre-incubation; for IC50: mean, n = 3; for Mean (RFU/s): Proteinase K
T3 construct: purchased Roche
T3 sequence (P06873 106-384): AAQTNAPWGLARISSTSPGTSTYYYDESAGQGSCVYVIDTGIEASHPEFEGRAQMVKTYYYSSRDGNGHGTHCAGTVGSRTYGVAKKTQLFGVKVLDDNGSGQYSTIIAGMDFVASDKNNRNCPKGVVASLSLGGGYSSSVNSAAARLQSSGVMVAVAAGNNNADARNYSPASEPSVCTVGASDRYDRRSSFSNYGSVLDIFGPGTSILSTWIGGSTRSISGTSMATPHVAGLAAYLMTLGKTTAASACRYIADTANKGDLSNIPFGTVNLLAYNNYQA

[3] = 40 min pre-incubation, mean, n = 3, read-out: IC50 Chymotrypsin
[4] = inhibitor concentration 0.0508053 nM, 40 min pre-incubation
[5] = inhibitor concentration 0.152416 nM, 40 min pre-incubation
[6] = inhibitor concentration 0.457247 nM, 40 min pre-incubation
[7] = inhibitor concentration 1.37174 nM, 40 min pre-incubation
[8] = inhibitor concentration 4.11523 nM, 40 min pre-incubation
[9] = inhibitor concentration 12.3457 nM, 40 min pre-incubation
[10] = inhibitor concentration 37.037 nM, 40 min pre-incubation
[11] = inhibitor concentration 111.111 nM, 40 min pre-incubation
[12] = inhibitor concentration 333.333 nM, 40 min pre-incubation
[13] = inhibitor concentration 1000 nM, 40 min pre-incubation
[14] = inhibitor concentration 3000 nM, 40 min pre-incubation
[15] = Supplementary Table 5, compounds of this study, read-out: Chymotrypsin IC50
[16] = inhibitor concentration 0.0508053 nM
[17] = inhibitor concentration 0.152416 nM
[18] = inhibitor concentration 0.457247 nM
[19] = inhibitor concentration 1.37174 nM
[20] = inhibitor concentration 4.11523 nM
[21] = inhibitor concentration 12.3457 nM
[22] = inhibitor concentration 37.037 nM
[23] = inhibitor concentration 111.111 nM
[24] = inhibitor concentration 333.333 nM
[25] = inhibitor concentration 1000 nM
[26] = inhibitor concentration 3000 nM
[27] = replacement of Abu (compound 2) for Leu (1)

C/C=C1\NC(=O)[C@@H](NC(=O)[C@@H](NC(=O)[C@H](C)NC(=O)CCC)C(C)C)[C@@H](C)OC(=O)[C@H](C(C)C)NC(=O)[C@H](Cc2ccc(O)cc2)N(C)C(=O)[C@H](Cc2ccccc2)N2C(=O)[C@H](CC[C@H]2O)NC1=O [Bouillomide A]
IC50 (Chymotrypsin [1]): 170 nM

CCC(=O)N[C@@H](CCC(N)=O)C(=O)N[C@@H]1C(=O)N[C@@H](CC(C)C)C(=O)N[C@H]2CC[C@@H](O)N(C2=O)[C@@H](Cc2ccccc2)C(=O)N(C)[C@@H](Cc2ccc(O)cc2)C(=O)N[C@@H](C(C)C)C(=O)O[C@@H]1C [Crocapeptin A1]
IC50 (Chymotrypsin [1]): 100 nM

CC(C)C[C@@H]1NC(=O)[C@@H](NC(=O)[C@H](CCC(N)=O)NC(=O)C(C)C)[C@@H](C)OC(=O)[C@H](C(C)C)NC(=O)C(Cc2ccc(O)cc2)N(C)C(=O)[C@H](Cc2ccccc2)N2C(=O)[C@H](CC[C@H]2O)NC1=O (stereo partly drawn) [Crocapeptin A2]
IC50 (Chymotrypsin [1]): 100 nM

CCC(C)C(=O)N[C@@H](CCC(N)=O)C(=O)N[C@@H]1C(=O)N[C@@H](CC(C)C)C(=O)N[C@H]2CC[C@@H](O)N(C2=O)[C@@H](Cc2ccccc2)C(=O)N(C)[C@@H](Cc2ccc(O)cc2)C(=O)N[C@@H](C(C)C)C(=O)O[C@@H]1C (stereo partly drawn) [Crocapeptin A3]
IC50 (Chymotrypsin [1]): 100 nM

CCCCCC(=O)N[C@@H](CC(=O)O)C(=O)N[C@@H]1C(=O)N[C@@H](Cc2ccc(O)cc2)C(=O)N[C@H]2CC[C@@H](O)N(C2=O)[C@@H](CC(C)C)C(=O)N(C)[C@@H](Cc2ccccc2)C(=O)N[C@@H](C(C)C)C(=O)O[C@@H]1C [Cyanopeptolin 963A]
IC50 (Chymotrypsin [1]): 900 nM

CCCCCC(=O)NC(CC(=O)O)C(=O)NC1C(=O)NC(Cc2ccc(O)cc2)C(=O)NC2CCC(O)N(C2=O)C(Cc2ccccc2)C(=O)N(C)C(CCc2ccc(O)cc2)C(=O)NC(C(C)C)C(=O)OC1C (stereo not drawn) [Cyanopeptolin CP1027]
IC50 (Chymotrypsin [1]): 260 nM

CC[C@@H](C)[C@H]1C(=O)N(C)[C@@H](Cc2ccc(OC)c(Br)c2)C(=O)N[C@@H]([C@@H](C)CC)C(=O)O[C@H](C)[C@H](NC(=O)[C@@H](NC(=O)[C@@H](COS(=O)(=O)O)OC)C(C)C)C(=O)N[C@@H](CCCCN)C(=O)N[C@H]2CC[C@@H](O)N1C2=O [Jizanpeptin C] ({Propanoyl(2R-OMe,3-OSO3H)}-VTK[Ahp(3S,6R)alloIle][NMeTyr(3-Br,OMe)]I; ester 2-C)
IC50 (Chymotrypsin [1]): 1400 nM

CC(C)C[C@@H]1NC(=O)[C@@H](NC(=O)[C@@H](NC(=O)[C@H](C)NC(=O)[C@H](CCCc2ccc(O)cc2)NC(=O)[C@H](O)CO)C(C)C)[C@@H](C)OC(=O)[C@H](C(C)C)NC(=O)[C@H](Cc2ccc(O)c(Br)c2)N(C)C(=O)[C@@H]2[C@H](C)O[C@@H]3CC[C@H](NC1=O)C(=O)N23 [Largamide D oxazolidine]
IC50 (Chymotrypsin [1]): 928 nM

CCCCCC(=O)NCC(=O)N[C@H](C(=O)N[C@@H]1C(=O)N[C@@H](CCC(N)=O)C(=O)N[C@H]2CC[C@@H](O)N(C2=O)[C@@H](Cc2ccccc2)C(=O)N(C)[C@@H](Cc2c[nH]c3ccccc23)C(=O)N[C@@H](C(C)C)C(=O)O[C@@H]1C)[C@@H](C)O [Micropeptin 103]
IC50 (Chymotrypsin [1]): 1000 nM

CCCCCC(=O)N[C@@H](CCC(=O)O)C(=O)N[C@@H]1C(=O)N[C@@H](Cc2ccc(O)cc2)C(=O)N[C@H]2CC[C@@H](O)N(C2=O)[C@@H](Cc2ccccc2)C(=O)N(C)[C@@H](Cc2ccc(O)cc2)C(=O)N[C@@H](C(C)C)C(=O)O[C@@H]1C [Micropeptin C]
IC50 (Chymotrypsin [1]): 1100 nM

CC[C@@H](C)[C@H]1NC(=O)[C@@H](Cc2ccccc2)N(C)C(=O)[C@@H](CC(C)C)N2C(=O)[C@@H](CC[C@@H]2O)NC(=O)[C@@H](Cc2ccc(O)cc2)NC(=O)[C@H](NC(=O)[C@H](CCC(N)=O)NC(=O)[C@H](O)Cc2ccc(O)cc2)[C@@H](C)OC1=O [Micropeptin DR1056]
IC50 (Chymotrypsin [1]): 1600 nM

CC=C1NC(=O)[C@@H](NC(=O)[C@@H](NC(=O)[C@@H]2CCCN2C(=O)CCC)[C@@H](C)OC(=O)C2CCCN2C(=O)CCC)[C@@H](C)OC(=O)[C@H](C(C)C)NC(=O)[C@H](Cc2ccc(O)cc2)N(C)C(=O)[C@H](Cc2ccccc2)N2C(=O)[C@H](CC[C@H]2O)NC1=O (stereo partly drawn) [Rivulariapeptolide 1155, rivulariapeptolide 1155]
IC50 (Chymotrypsin [2]; [3]): 41.8 nM | Mean (RFU/s) (Chymotrypsin [2]; [4]): 5.293 RFU/s | Mean (RFU/s) (Chymotrypsin [2]; [5]): 5.198 RFU/s | Mean (RFU/s) (Chymotrypsin [2]; [6]): 5.411 RFU/s | Mean (RFU/s) (Chymotrypsin [2]; [7]): 5.774 RFU/s | Mean (RFU/s) (Chymotrypsin [2]; [8]): 4.968 RFU/s | Mean (RFU/s) (Chymotrypsin [2]; [9]): 4.399 RFU/s | Mean (RFU/s) (Chymotrypsin [2]; [10]): 2.874 RFU/s | Mean (RFU/s) (Chymotrypsin [2]; [11]): 1.339 RFU/s | Mean (RFU/s) (Chymotrypsin [2]; [12]): 0.494 RFU/s | Mean (RFU/s) (Chymotrypsin [2]; [13]): 0.1737 RFU/s | Mean (RFU/s) (Chymotrypsin [2]; [14]): 0 RFU/s | IC50 (Chymotrypsin [2]; [15]): 41.8 nM | IC50 (Elastase): 4.94 nM | Mean (RFU/s) (Elastase; [16]): 0.9773 RFU/s | Mean (RFU/s) (Elastase; [17]): 0.8963 RFU/s | Mean (RFU/s) (Elastase; [18]): 0.839 RFU/s | Mean (RFU/s) (Elastase; [19]): 0.7733 RFU/s | Mean (RFU/s) (Elastase; [20]): 0.5503 RFU/s | Mean (RFU/s) (Elastase; [21]): 0.1703 RFU/s | Mean (RFU/s) (Elastase; [22]): 0.054 RFU/s | Mean (RFU/s) (Elastase; [23]): 0 RFU/s | Mean (RFU/s) (Elastase; [24]): 0 RFU/s | Mean (RFU/s) (Elastase; [25]): 0 RFU/s | Mean (RFU/s) (Elastase; [26]): 0 RFU/s | IC50 (Proteinase K): 56.5 nM | Mean (RFU/s) (Proteinase K; [16]): 6.603 RFU/s | Mean (RFU/s) (Proteinase K; [17]): 6.245 RFU/s | Mean (RFU/s) (Proteinase K; [18]): 6.403 RFU/s | Mean (RFU/s) (Proteinase K; [19]): 6.159 RFU/s | Mean (RFU/s) (Proteinase K; [20]): 6.088 RFU/s | Mean (RFU/s) (Proteinase K; [21]): 5.497 RFU/s | Mean (RFU/s) (Proteinase K; [22]): 4.358 RFU/s | Mean (RFU/s) (Proteinase K; [23]): 1.504 RFU/s | Mean (RFU/s) (Proteinase K; [24]): 0.363 RFU/s | Mean (RFU/s) (Proteinase K; [25]): 0.09033 RFU/s | Mean (RFU/s) (Proteinase K; [26]): 0.027 RFU/s

CCCC(=O)N1CCCC1C(=O)NC(C(=O)NC1C(=O)NC(CC(C)C)C(=O)NC2CCC(O)N(C2=O)C(Cc2ccccc2)C(=O)N(C)C(Cc2ccc(O)cc2)C(=O)NC(C(C)C)C(=O)OC1C)C(C)OC(=O)C1CCCN1C(=O)CCC (stereo not drawn) [Rivulariapeptolide 1185, rivulariapeptolide 1185]
IC50 (Chymotrypsin [2]; [3]): 13.2 nM | Mean (RFU/s) (Chymotrypsin [2]; [4]): 5.046 RFU/s | Mean (RFU/s) (Chymotrypsin [2]; [5]): 5.119 RFU/s | Mean (RFU/s) (Chymotrypsin [2]; [6]): 5.025 RFU/s | Mean (RFU/s) (Chymotrypsin [2]; [7]): 5.024 RFU/s | Mean (RFU/s) (Chymotrypsin [2]; [8]): 4.153 RFU/s | Mean (RFU/s) (Chymotrypsin [2]; [9]): 2.685 RFU/s | Mean (RFU/s) (Chymotrypsin [2]; [10]): 1.084 RFU/s | Mean (RFU/s) (Chymotrypsin [2]; [11]): 0.416 RFU/s | Mean (RFU/s) (Chymotrypsin [2]; [12]): 0.1823 RFU/s | Mean (RFU/s) (Chymotrypsin [2]; [13]): 0 RFU/s | Mean (RFU/s) (Chymotrypsin [2]; [14]): 0 RFU/s | IC50 (Chymotrypsin [2]; [15]): 13.2 nM | increase in potency towards chymotrypsin (Chymotrypsin [2]; [27]): more than threefold | IC50 (Elastase): 23.6 nM | Mean (RFU/s) (Elastase; [16]): 0.9257 RFU/s | Mean (RFU/s) (Elastase; [17]): 0.9033 RFU/s | Mean (RFU/s) (Elastase; [18]): 0.876 RFU/s | Mean (RFU/s) (Elastase; [19]): 0.8487 RFU/s | Mean (RFU/s) (Elastase; [20]): 0.7693 RFU/s | Mean (RFU/s) (Elastase; [21]): 0.589 RFU/s | Mean (RFU/s) (Elastase; [22]): 0.369 RFU/s | Mean (RFU/s) (Elastase; [23]): 0.07933 RFU/s | Mean (RFU/s) (Elastase; [24]): 0.02233 RFU/s | Mean (RFU/s) (Elastase; [25]): 0 RFU/s | Mean (RFU/s) (Elastase; [26]): 0 RFU/s | decrease in potency towards elastase (Elastase; [27]): fivefold | IC50 (Proteinase K): 55.3 nM | Mean (RFU/s) (Proteinase K; [16]): 6.418 RFU/s | Mean (RFU/s) (Proteinase K; [17]): 6.488 RFU/s | Mean (RFU/s) (Proteinase K; [18]): 6.316 RFU/s | Mean (RFU/s) (Proteinase K; [19]): 6.389 RFU/s | Mean (RFU/s) (Proteinase K; [20]): 6.178 RFU/s | Mean (RFU/s) (Proteinase K; [21]): 5.621 RFU/s | Mean (RFU/s) (Proteinase K; [22]): 4.195 RFU/s | Mean (RFU/s) (Proteinase K; [23]): 1.657 RFU/s | Mean (RFU/s) (Proteinase K; [24]): 0.4863 RFU/s | Mean (RFU/s) (Proteinase K; [25]): 0.13 RFU/s | Mean (RFU/s) (Proteinase K; [26]): 0.04267 RFU/s
